Assay: xn = mol fraction of the nth substance listed

CCCC[N+]1(C)CCCCC1.F[P-](F)(F)(F)(F)F + CCCC[N+]1(C)CCCC1.F[P-](F)(F)(F)(F)F
viscosity [mPa·s], 102 kPa
Conditions	353.15 K	363.15 K	373.15 K	383.15 K
x1 = 0.3	126	85	58	–
x1 = 0.5	–	101	68	48
x1 = 0.7	194	125	84	59

CCCC[N+]1(C)CCCC1.F[P-](F)(F)(F)(F)F + CCCC[n+]1cccc(C)c1.F[P-](F)(F)(F)(F)F
viscosity [mPa·s], 101.3 kPa
Conditions	x2 = 0.2	x2 = 0.3	x2 = 0.4	x2 = 0.5	x2 = 0.6	x2 = 0.7	x2 = 0.8	x2 = 0.9
303.13 K	–	–	746	–	–	–	–	–
308.15 K	–	–	–	480	427	–	–	–
313.15 K	–	448	–	352	313	277	–	–
318.15 K	–	334	–	–	234	208	190	–
323.15 K	–	253	220	199	178	159	146	130
328.15 K	221	195	–	153	138	–	113	–
333.15 K	173	153	133	121	–	97	89	80
338.15 K	138	121	106	–	87	78	71	65
343.15 K	–	98	–	78	–	63	58	53
348.15 K	90	79	70	63	–	52	48	43
353.15 K	74	65	–	53	48	43	40	36
358.15 K	–	55	–	44	40	36	33	30
363.15 K	51	46	41	–	–	31	28	26
